pIC50: −log10 of the molar value.
Target: T1, hSCN9A (Homo sapiens, UniProt Q15858)
T1 construct: expressed in transfected cells
Assay: Whole-cell patch-clamp electrophysiology (conventional or PatchXpress), HEK cells expressing hSCN9A, estimated IC-50
Assay type: cell-based
Conditions: estimated IC-50, HEK cells expressing hSCN9A; class symbols or bounds; read-out: SCN9A EIC-50
Experimental: Human Embryonic Kidney (HEK) cells were transfected with hSCN3A or hSCN9A constructs using lipofectamine reagent (Invitrogen), using standard techniques. Cells stably expressing the hSCN3A or hSCN9A constructs were identified by their resistance to G-418 (400 μg/ml). Clones were screened for expression using the whole-cell voltage-clamp technique. HEK cells stably transfected with hSCN3A or hSCN9A were maintained in DMEM medium supplemented with 10% heat-inactivated fetal bovine serum and 400 μg/ml G418 sulfate in an incubator at 37° C. with a humidified atmosphere of 10% CO2. For HTS, cells were harvested from flasks by trypsinization and replated in an appropriate multi-well plate (typically 96 or 384 wells/plate) such that confluence would be achieved within 24 hours of plating. For electrophysiological studies, cells were removed from the culture flask by brief trypsinization and replated at low density onto glass cover slips. Cells were typically used for electrophysiological experiments within 24 to 72 h after plating. Cover slips containing HEK cells expressing hSCN3A or hSCN9A were placed in a bath on the stage of an inverted microscope and perfused (approximately 1 ml/min) with extracellular solution of the following composition: 138 mM NaCl, 2 mM CaCl2, 5.4 mM KCl, 1 mM MgCl2, 10 mM glucose, and 10 mM HEPES, pH 7.4, with NaOH. […] All recordings were made at room temperature (22-24° C.) using AXOPATCH 200B amplifiers and PCLAMP software (Axon Instruments, Burlingame, Calif.) or PatchXpress 7000 hardware and associated software (Axon Instruments, Burlingame, Calif.). hSCN3A or hSCN9A currents in HEK cells were measured using the whole-cell configuration of the patch-clamp technique (Hamill et al., 1981). […] As a result, voltage errors were negligible and no correction was applied. Current records were acquired at 20 to 50 KHz and filtered at 5 to 10 KHz. HEK cells stably transfected with hSCN3A or hSCN9A were viewed under Hoffman contrast optics and placed in front of an array of flow pipes emitting either control or compound-containing extracellular solutions. All compounds were dissolved in dimethyl sulfoxide to make 10 mM stock solutions, which were then diluted into extracellular solution to attain the final concentrations desired. […] The voltage-dependence of inactivation was determined by applying a series of depolarizing prepulses (8 sec long in 10 mV increments) from a negative holding potential. The voltage was then immediately stepped to 0 mV to assess the magnitude of the sodium current. Currents elicited at 0 mV were plotted as a function of prepulse potential to allow estimation of the voltage midpoint of inactivation (V1/2). Cells were then voltage clamped at the empirically determined V1/2. Compounds were tested for their ability to inhibit hSCN3A or hSCN9A sodium channels by activating the channel with a 20 msec voltage step to 0 mV following an 8 second conditioning prepulse to the empirically determined V1-2 (Table B). Compound effect (% inhibition) was determined by difference in current amplitude before and after application of test compounds. […] In some cases electrophysiological assays were conducted with PatchXpress 7000 hardware and associated software (Molecular Devices Corp) (Table B). All assay buffers and solutions were identical to those used in conventional whole-cell voltage clamp experiments described above. hSCN3A or hSCN9A containing cells were grown as above to 50%-80% confluency and harvested by trypsinization. Trypsinized cells were washed and resuspended in extracellular buffer at a concentration of 1×10^6 cells/ml. The onboard liquid handling facility of the PatchXpress was used for dispensing cells and application of test compounds. Determination of the voltage midpoint of inactivation was as described for conventional whole-cell recordings. Cells were then voltage-clamped to the empirically determined V1/2 and current was activated by a 20 msec voltage step to 0 mV.

T1 sequence (Q15858 whole entry): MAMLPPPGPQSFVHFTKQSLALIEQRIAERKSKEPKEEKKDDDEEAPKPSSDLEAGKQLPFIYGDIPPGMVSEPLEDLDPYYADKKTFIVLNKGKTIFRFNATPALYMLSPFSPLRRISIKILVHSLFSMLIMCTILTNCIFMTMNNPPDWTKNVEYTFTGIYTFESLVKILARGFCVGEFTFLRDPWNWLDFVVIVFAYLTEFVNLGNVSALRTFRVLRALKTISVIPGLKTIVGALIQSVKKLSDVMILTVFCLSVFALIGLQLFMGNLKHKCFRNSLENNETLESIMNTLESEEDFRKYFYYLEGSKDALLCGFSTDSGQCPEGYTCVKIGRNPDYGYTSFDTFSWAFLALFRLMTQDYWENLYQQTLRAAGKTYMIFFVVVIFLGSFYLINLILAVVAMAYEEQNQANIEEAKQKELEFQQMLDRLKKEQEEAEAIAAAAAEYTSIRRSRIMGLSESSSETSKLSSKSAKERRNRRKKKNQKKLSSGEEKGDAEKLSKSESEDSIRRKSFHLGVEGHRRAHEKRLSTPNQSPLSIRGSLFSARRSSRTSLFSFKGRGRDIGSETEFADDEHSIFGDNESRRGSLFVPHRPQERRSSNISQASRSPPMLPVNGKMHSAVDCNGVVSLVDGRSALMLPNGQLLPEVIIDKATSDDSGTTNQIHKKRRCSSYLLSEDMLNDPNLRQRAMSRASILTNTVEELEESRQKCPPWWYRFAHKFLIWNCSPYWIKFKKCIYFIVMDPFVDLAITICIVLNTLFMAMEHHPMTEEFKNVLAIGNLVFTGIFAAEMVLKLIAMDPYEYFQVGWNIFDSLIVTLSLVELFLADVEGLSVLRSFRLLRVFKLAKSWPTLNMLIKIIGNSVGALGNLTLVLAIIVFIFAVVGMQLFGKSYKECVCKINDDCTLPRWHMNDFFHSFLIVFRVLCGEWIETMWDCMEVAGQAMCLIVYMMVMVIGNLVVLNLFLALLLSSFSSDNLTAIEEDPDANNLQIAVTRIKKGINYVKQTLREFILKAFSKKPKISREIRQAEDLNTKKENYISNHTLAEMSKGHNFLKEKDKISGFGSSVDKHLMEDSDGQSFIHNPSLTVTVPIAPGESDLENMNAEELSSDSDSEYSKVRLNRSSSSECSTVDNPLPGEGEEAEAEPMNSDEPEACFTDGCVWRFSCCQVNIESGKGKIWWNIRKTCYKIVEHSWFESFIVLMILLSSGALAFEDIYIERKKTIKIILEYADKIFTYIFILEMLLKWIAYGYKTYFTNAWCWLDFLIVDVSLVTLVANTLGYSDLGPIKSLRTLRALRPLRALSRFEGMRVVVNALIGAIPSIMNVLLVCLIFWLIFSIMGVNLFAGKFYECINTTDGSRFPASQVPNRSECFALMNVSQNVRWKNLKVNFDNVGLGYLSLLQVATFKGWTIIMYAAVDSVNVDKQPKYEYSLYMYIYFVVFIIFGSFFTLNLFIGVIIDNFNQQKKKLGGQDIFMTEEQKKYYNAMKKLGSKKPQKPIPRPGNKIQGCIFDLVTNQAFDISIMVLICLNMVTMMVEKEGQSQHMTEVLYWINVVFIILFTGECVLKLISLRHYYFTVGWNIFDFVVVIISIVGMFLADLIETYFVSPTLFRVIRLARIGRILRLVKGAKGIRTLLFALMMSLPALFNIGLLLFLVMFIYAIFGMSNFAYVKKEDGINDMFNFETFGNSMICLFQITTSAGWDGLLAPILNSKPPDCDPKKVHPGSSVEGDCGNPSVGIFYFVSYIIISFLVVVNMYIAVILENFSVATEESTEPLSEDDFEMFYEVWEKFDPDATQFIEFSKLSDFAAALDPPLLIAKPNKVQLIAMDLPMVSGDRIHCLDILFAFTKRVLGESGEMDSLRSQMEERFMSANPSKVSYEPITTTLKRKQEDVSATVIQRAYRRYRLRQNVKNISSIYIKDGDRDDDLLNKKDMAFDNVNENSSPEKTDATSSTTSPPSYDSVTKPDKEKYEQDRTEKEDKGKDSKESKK

SMILES	pIC50
O=C1CC(c2ccccc2)Cc2nc(Nc3ccc(S(=O)(=O)Nc4nccs4)cc3)sc21 (centres unmarked) [Compound 135, 4-(7-oxo-5-phenyl-4,5,6,7-tetrahydrobenzo[d]thiazol-2-ylamino)-N-(thiazol-2-yl)benzenesulfonamide]	< 6.00
O=S(=O)(Nc1nccs1)c1ccc(Nc2ccn(Cc3ccc(F)cc3)n2)c(F)c1 [Compound 226, 3-fluoro-4-(1-(4-fluorobenzyl)-1H-pyrazol-3-ylamino)-N-(thiazol-2-yl)benzenesulfonamide]	> 5.70
Cc1n[nH]c(Nc2ccc(S(=O)(=O)Nc3nccs3)cc2)c1-c1ccccc1 [Compound 124, 4-(3-methyl-4-phenyl-1H-pyrazol-5-ylamino)-N-(thiazol-2-yl)benzenesulfonamide]	< 6.00
COc1ccccc1-n1nc(C(C)(C)C)cc1Nc1ccc(S(=O)(=O)Nc2nccs2)c(F)c1 [Compound 214, 4-(3-tert-butyl-1-(2-methoxyphenyl)-1H-pyrazol-5-ylamino)-2-fluoro-N-(thiazol-2-yl)benzenesulfonamide]	> 5.70
Cc1cc(Nc2ccc(S(=O)(=O)Nc3nccs3)c(F)c2)n(-c2cccc(C(F)(F)F)c2)n1 [Compound 181, 2-fluoro-4-(3-methyl-1-(3-(trifluoromethyl)phenyl)-1H-pyrazol-5-ylamino)-N-(thiazol-2-yl)benzenesulfonamide]	> 5.70
Cc1cc(Nc2ccc(S(=O)(=O)Nc3nnc(C(F)F)s3)c(F)c2)n(-c2ccccc2)n1 [Compound 248, N-(5-(difluoromethyl)-1,3,4-thiadiazol-2-yl)-2-fluoro-4-(3-methyl-1-phenyl-1H-pyrazol-5-ylamino)benzenesulfonamide]	5.00 to 5.70
CC1(C)CC(=O)c2sc(Nc3ccc(S(=O)(=O)Nc4nccs4)cc3)nc2C1 [Compound 136, 4-(5,5-dimethyl-7-oxo-4,5,6,7-tetrahydrobenzo[d]thiazol-2-ylamino)-N-(thiazol-2-yl)benzenesulfonamide]	< 6.00
Cc1cc(Nc2ccc(S(=O)(=O)Nc3nccs3)c(F)c2)n(C(C)C2CC2)n1 (centres unmarked) [Compound 175, 4-(1-(1-cyclopropylethyl)-3-methyl-1H-pyrazol-5-ylamino)-2-fluoro-N-(thiazol-2-yl)benzenesulfonamide]	> 5.70
O=S(=O)(Nc1nccs1)c1ccc2c(cnn2Cc2ccc(OC(F)(F)F)cc2)c1 [Compound 274, N-(thiazol-2-yl)-1-(4-(trifluoromethoxy)benzyl)-1H-indazole-5-sulfonamide]	> 5.70
O=S(=O)(Nc1nncs1)c1ccc(Nc2ccn(Cc3ccc(Cl)cc3)n2)cc1C(F)(F)F [Compound 265, 4-(1-(4-chlorobenzyl)-1H-pyrazol-3-ylamino)-N-(1,3,4-thiadiazol-2-yl)-2-(trifluoromethyl)benzenesulfonamide]	> 5.70
COCc1nnc(NS(=O)(=O)c2ccc(Nc3ccn(Cc4ccc(Cl)cc4)n3)cc2F)s1 [Compound 254, 4-(1-(4-chlorobenzyl)-1H-pyrazol-3-ylamino)-2-fluoro-N-(5-(methoxymethyl)-1,3,4-thiadiazol-2-yl)benzenesulfonamide]	< 6.00
O=S(=O)(Nc1nccs1)c1ccc(Nc2ncn(Cc3ccc(F)cc3Cl)n2)c(F)c1 [Compound 207, 4-(1-(2-chloro-4-fluorobenzyl)-1H-1,2,4-triazol-3-ylamino)-3-fluoro-N-(thiazol-2-yl)benzenesulfonamide]	> 5.70
COc1cccc(-n2nc(C)cc2Nc2ccc(S(=O)(=O)Nc3nccs3)c(F)c2)c1 [Compound 220, 2-fluoro-4-(1-(3-methoxyphenyl)-3-methyl-1H-pyrazol-5-ylamino)-N-(thiazol-2-yl)benzenesulfonamide]	> 5.70
Cc1cc(Nc2ccc(S(=O)(=O)Nc3nccs3)cc2F)n(-c2ccccc2F)n1 [Compound 203, 3-fluoro-4-(1-(2-fluorophenyl)-3-methyl-1H-pyrazol-5-ylamino)-N-(thiazol-2-yl)benzenesulfonamide]	> 5.70
